Results: paper PMC10824102, “Identification of small molecule inhibitors of G3BP-driven stress granule formation” (The Journal of Cell Biology, 2024)

Assays:
[1] = system: stress granule formation in U2OS cells stably expressing G3BP1-GFP; assay: Preincubation, heat shock-induced stress granule formation in U2OS; format: cell-based; settings: 50 μM, 20 min pretreatment, 43°C heat shock, 15 min post heat shock
Protocol: (§1) For preincubation of compounds, U2OS or HeLa cells stably expressing G3BP1-GFP or CRISPR-modified cells expressing TDP-43-GFP/G3BP1-GFP were seeded into eight-well Lab-Tek chambered cover glass (Nunc). At least 20 min prior to the experiment, 1 ml FluoroBrite DMEM media (Gibco) supplemented with 10% FBS and 4 mM L-glutamine was combined with 0.1% DMSO or G3I compound (5, 10, or 50 μM). This solution was vortexed for 5 s, added to the cells at 250 μl per well, and left to incubate on the microscope for 20 min. Conditions were maintained at 37°C and 5% CO2 using a Bold Line Cage Incubator (Okolab) and an objective heater (Bioptechs). During this incubation time, 5 xy fields were stored per condition, with each field having ∼20–30 cells within it. After the 20-min incubation, 250 μl of 500 μM or 1 mM (2×) sodium arsenite (Sigma-Aldrich) diluted in the FluoroBrite media with an appropriate amount of G3I compound or DMSO was added to the sample. Imaging began immediately after, with images at each xy field being taken every 1 min. For heat shock experiments, U2OS G3BP1-GFP-expressing cells were seeded into a 35-mm glass bottom dish (MatTek). Prior to the experiment, 1.5 ml FluoroBrite DMEM media (Gibco) supplemented with 10% FBS and 4 mM L-glutamine was combined with 0.1% DMSO or 50 μM G3I compound. The sample was incubated on the environmentally controlled microscope for 20 min. […]

[2] = system: TDP-43 localization to stress granules in CRISPR-modified U2OS cells; assay: Live imaging of GFP-TDP-43 and mRuby3-G3BP1 in CRISPR-modified U2OS cells; format: cell-based; settings: 50 μM pretreatment, 250 μM NaAsO2 for 30 min
Protocol: as §1

[3] = target: T1, interaction between G3BP1 and endogenous caprin 1 (Homo sapiens, UniProt Q13283); assay: Coimmunoprecipitation of G3BP1-GFP with endogenous caprin 1 in U2OS lysates; format: biochemical; settings: increasing concentrations added to U2OS G3BP1-GFP lysates, GFP IP
T1 construct: expressed in transfected cells; host or cells: U2OS cells stably expressing G3BP1-GFP (lysate)
T1 sequence (Q13283 whole entry): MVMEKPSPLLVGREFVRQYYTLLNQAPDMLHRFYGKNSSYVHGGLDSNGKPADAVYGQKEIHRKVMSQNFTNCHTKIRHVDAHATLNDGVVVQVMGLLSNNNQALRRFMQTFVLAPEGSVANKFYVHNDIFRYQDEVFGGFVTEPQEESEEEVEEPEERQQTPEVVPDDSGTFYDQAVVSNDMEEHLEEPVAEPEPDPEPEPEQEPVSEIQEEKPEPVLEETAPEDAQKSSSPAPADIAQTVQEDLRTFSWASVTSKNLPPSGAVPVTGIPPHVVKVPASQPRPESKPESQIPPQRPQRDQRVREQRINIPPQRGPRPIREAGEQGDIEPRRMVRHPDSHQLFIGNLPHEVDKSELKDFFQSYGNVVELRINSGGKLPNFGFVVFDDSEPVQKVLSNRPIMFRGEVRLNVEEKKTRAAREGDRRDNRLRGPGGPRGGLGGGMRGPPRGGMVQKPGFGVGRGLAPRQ
Protocol: U2OS cells expressing G3BP1-GFP were grown in 3-cm dishes to 100% confluency, at which point cells were collected and pelleted at 400 × g for 5 min. Pellets were either stored at −80°C or processed the same day by lysing with 200 μl in vivo lysis buffer (150 mM NaCl, 50 mM Tris [pH 7.5], 1 mM EDTA, 0.5% NP-40, and 10% glycerol, supplemented with 1 protease inhibitor tablet [11836170001; Roche]). Lysates were centrifuged at 13,000 × g at 4°C for 15 min, after which supernatants were transferred to a new tube and diluted with 200 μl lysis buffer containing indicated concentrations of G3I compounds. The mixture was then incubated with GFP-Trap (ChromoTek GFP-Trap Magnetic Agarose; Proteintech; gtma) for 2 h at 4°C. Beads were washed three times with lysis buffer, then incubated with 1× SDS sample buffer supplemented with 10% 2-mercaptoethanol, and boiled for 5 min at 95°C. Lysates were subjected to SDS-PAGE and then immunoblotted.
Samples were separated by SDS-PAGE and transferred to membranes. […] Membranes were visualized and quantified with an Odyssey Fc imaging system (LI-COR) and normalized to the amount of G3BP1 immunoprecipitated.

[4] = system: stress granule formation in HeLa cells stably expressing G3BP1-GFP; assay: Preincubation, arsenite-induced stress granule formation, live cell imaging in HeLa; format: cell-based; settings: Homo sapiens, 20 min pretreatment, 250 μM NaAsO2, read-out: inhibition of stress granule formation compared with inactive enantiomer
Protocol: as §1

SMILES | reduction of stress granule formation compared with inactive enantiomer [1] | TDP-43 localization to stress granules [2] | interaction between G3BP1 and endogenous caprin 1 [3] | inhibition at 50 µM [4]
CC(NC(=O)C(NC(=O)C(NC(=O)CCC(C)(C)C)C(C)(C)O)C(C)c1ccccc1)C(=O)N1CCCC1c1ccccc1 (centres unmarked) [G3Ib] | ~82% | not | dose-dependent reduction | ~82%
COCCC(NC(=O)C(C)NC(=O)C(NC(=O)C(NC(=O)C(F)CC(C)(C)C)C(C)(C)O)C(C)c1ccccc1)C(=O)N(C)Cc1ccccc1 (centres unmarked) [G3Ia] | ~79% | – | – | ~72%
CC(NC(=O)C(NC(=O)C(NC(=O)CCC(C)(C)C)C(C)(C)O)C(C)c1ccccc1)C(=O)N1CCCC1c1ccccc1 (centres unmarked) [G3Ib′] | – | a small proportion of TDP-43 localized to stress granules | no such effect | –
